Here are results for two compounds from patent publication US9763445B2, “Safened herbicidal compositions comprising a pyridine carboxylic acid herbicide” (Dow AgroSciences, LLC, priority 2014, dated 2017).

Structures are written as SMILES.

Data set [1] relates to winter rape (BRSNW). Briefly: Postemergence greenhouse trial, % visual injury on winter rape. The format is in vivo, Brassica napus. Particulars: Brassica napus, post-emergence, BRSNW, CQC-m 0, read-out: % visual injury, Ob. The protocol: (§1) Seeds of the desired test plant species were planted in Sun Gro MetroMix® 306 planting mixture, which typically has a pH of 6.0 to 6.8 and an organic matter content of about 30 percent, in plastic pots with a surface area of 103.2 square centimeters (cm^2). When required to ensure good germination and healthy plants, a fungicide treatment and/or other chemical or physical treatment was applied. The plants were grown for 7-36 days (d) in a greenhouse with an approximate 14-hour (h) photoperiod which was maintained at about 23° C. during the day and 22° C. during the night. Nutrients and water were added on a regular basis and supplemental lighting was provided with overhead metal halide 1000-Watt lamps as necessary. The plants were employed for testing when they reached the second or third true leaf stage.
(§2) Weighed amounts of technical material were dissolved in a volume of 97:3 volume per volume (v/v) acetone/dimethyl sulfoxide (DMSO) to stock solutions. […] The concentrated stock solutions were diluted with an aqueous mixture of 1.5% v/v of Agri-dex crop oil concentrate to provide the appropriate application rates. Compound requirements are based upon a 12 milliliter (mL) application volume at a rate of 187 liters per hectare (L/ha). Stocks solutions of the safeners were prepared following the same procedure. Spray solutions of the safeners and experimental compound mixtures were prepared by adding the stock solutions to the appropriate amount of dilution solution to form a 12 mL spray solution in two-way combinations. Formulated compounds were applied to the plant material with an overhead Mandel track sprayer equipped with 8002E nozzles calibrated to deliver 187 L/ha over an application area of 0.503 square meters (m^2) at a spray height of 18 inches (43 centimeters (cm)) above average plant canopy. Control plants were sprayed in the same manner with the solvent blank. All herbicide application (component a) rates are in g ae/ha and all safener (component b) rates are in g ai/ha.
(§3) The treated plants and control plants were placed in a greenhouse as described above and watered by sub-irrigation to prevent wash-off of the test compounds. After 20-22 d, the condition of the test plants as compared with that of the control plants was determined visually and scored on a scale of 0 to 100 percent where 0 corresponds to no injury and 100 corresponds to complete kill. The condition of the test plants was compared with that of the control plants as determined visually and scored on a scale of 0 to 100 percent, where 0 corresponds to no injury and 100 corresponds to complete kill. Colby's equation was used to determine the herbicidal effects expected from the mixtures.
(§4) The safener cloquintocet-mexyl was combined with compound 1, compound 2, compound 4, compound 5, and compound 6, and applied to corn/maize (ZEAMX) and spring wheat (TRZAS) and the phytotoxicity of the herbicidal compositions was measured. In addition, the efficacy of the herbicidal composition on velvetleaf (ABUTH, Abutilon theophrasti), pigweed (AMARE, Amaranthus retroflexus), winter rape (BRSNW, Brassica napus), lambsquarters (CHEAL, Chenopodium album), thistle (CIRAR, Cirsium arvense), nutsedge (CYPES, Cyperus esculentus), poinsettia (EPHHL, Euphorbia heterophylla), wild buckwheat (POLCO, Polygonum convolvulus), giant foxtail (SETFA, Setaria faberi), and chickweed (STEME, Stellaria media) was evaluated. […]

Data set [2] deals with spring wheat (TRZAS). The data set can be described thus: Postemergence greenhouse trial, % visual injury on spring wheat. Type of data set: in vivo, Triticum aestivum. Conditions: TRZAS. The protocol: as §1, §2, §3
The safener cloquintocet-mexyl was combined with compound 1, compound 2, compound 4, compound 5, and compound 6, and applied to corn/maize (ZEAMX) and spring wheat (TRZAS) and the phytotoxicity of the herbicidal compositions was measured. In addition, the efficacy of the herbicidal composition on velvetleaf (ABUTH, Abutilon theophrasti), pigweed (AMARE, Amaranthus retroflexus), winter rape (BRSNW, Brassica napus), lambsquarters (CHEAL, Chenopodium album), thistle (CIRAR, Cirsium arvense), nutsedge (CYPES, Cyperus esculentus), poinsettia (EPHHL, Euphorbia heterophylla), wild buckwheat (POLCO, Polygonum convolvulus), giant foxtail (SETFA, Setaria faberi), and chickweed (STEME, Stellaria media) was evaluated.
(§5) The safener cloquintocet-mexyl was combined with compound 1, compound 2, compound 3, compound 7, compound 8, compound 9, compound 10, compound 11, compound 12, compound 13, compound 14, compound 15, compound 16, compound 17, compound 18, compound 19, and compound 20, and applied to spring wheat (TRZAS), winter wheat (TRZAW), and spring barley (HORVS) and the phytotoxicity of the herbicidal compositions was measured. […]

Data set [3] has as its system kochia (KCHSC). Briefly: Postemergence greenhouse trial, % visual injury on kochia. Conditions: Bassia scoparia, post-emergence, KCHSC, CQC-m 0, read-out: % visual injury, Ob. The format is in vivo, Kochia scoparia. The protocol:
as §1, §2
as §3, with “mixtures. […]” for “mixtures.”

For data set [4], the system named is wild mustard (SINAR). The data set can be described thus: Postemergence greenhouse trial, % visual injury on wild mustard. Particulars: Brassica, post-emergence, SINAR, CQC-m 0, read-out: % visual injury, Ob. The format is in vivo, Sinapis arvensis. The procedure:
as §1, §2
as §3, with “mixtures. […]” for “mixtures.”

Data set [5] relates to prickly lettuce (LACSE). The data set can be described thus: Postemergence greenhouse trial, % visual injury on prickly lettuce. The format is in vivo, Lactuca serriola. Particulars: LACSE, CQC-m 0. The protocol:
as §1, §2
as §3, with “mixtures. […]” for “mixtures.”

Data set [6] concerns spring barley (HORVS). The data set can be described thus: Postemergence greenhouse trial, % visual injury on spring barley. The format is in vivo, Hordeum vulgare. Particulars: HORVS. The procedure:
as §1, §2, §3, §5

Data set [7] concerns bird's-eye speedwell (VERPE). Briefly: Postemergence greenhouse trial, % visual injury on bird's-eye speedwell. Type of data set: in vivo, Veronica persica. Particulars: VERPE, CQC-m 0. The protocol:
as §1, §2
as §3, with “mixtures. […]” for “mixtures.”

Data set [8] deals with Russian thistle (SASKR). The data set can be described thus: Postemergence greenhouse trial, % visual injury on Russian thistle. The format is in vivo, Salsola kali. Particulars: SASKR, CQC-m 0 g/ha.
In data set [9] the test system is cleavers (GALAP). The data set can be described thus: Postemergence greenhouse trial, % visual injury on cleavers. Conditions: CQC-m 0 g/ha. The format is in vivo, Galium aparine. The procedure: as §1, §2, §3, §5
Data set [10] deals with pigweed (AMARE). The data set can be described thus: Postemergence greenhouse trial, % visual injury on pigweed. The format is in vivo, Amaranthus retroflexus. Particulars: AMARE, CQC-m 0 g/ha. The protocol: as §1, §2, §3, §4
The safener cloquintocet-acid and a number of agriculturally acceptable esters and salts (-mexyl, -dimethylammonium salt and -triethylammonium salt) were combined in varying ratios with compound 1 and applied to spring wheat (TRZAS), winter wheat (TRZAW), and spring barley (HORVS), and the phytotoxicity of the herbicidal compositions was measured. […]

Setting [11] is: compound 4.380 g/ha, CQC-m 0 g/ha.
[12] abbreviates: compound 8.75 g/ha, CQC-m 0 g/ha.
[13] abbreviates: compound 17.5 g/ha, CQC-m 0 g/ha.

Take `COC(=O)c1nc(-c2ccc3cc[nH]c3c2F)c(F)c(/N=C/N(C)C)c1Cl` [compound 11]: in data set [1] (compound 17.5 g/ha), the plant injury at 17.5 g/ha came to 95%. Further, in data set [1] (compound 35 g/ha), the plant injury at 35 g/ha was 100%. Besides, the plant injury at 70 g/ha in data set [1] (compound 70 g/ha) stood at 100%. The “% visual injury, Ob” value in [2] (compound 17.5 g/ha, CQC-m 0) was 10%; in data set [2] (compound 35 g/ha, CQC-m 0), 20%; in data set [2] (compound 70 g/ha, CQC-m 0) it was 40%; in data set [5] (compound 17.5 g/ha), 0%; in data set [5] (compound 35 g/ha), 10%; in [5] (compound 70 g/ha), 40%. For the same compound, the “% visual injury, Ob” value in data set [6] (compound 17.5 g/ha, CQC-m 0) turned out to be 10%; in data set [6] (compound 35 g/ha, CQC-m 0) it was 20%; in data set [6] (compound 70 g/ha, CQC-m 0) it was 40%; in data set [7] (compound 17.5 g/ha) it was 85%; in data set [7] (compound 35 g/ha), 90%; in [7] (compound 70 g/ha), 95%. The values for the pest or weed control at 17.5 g/ha in data set [3] (compound 17.5 g/ha) and in data set [4] (compound 17.5 g/ha) were 70% and 95%, respectively. The values for the pest or weed control at 35 g/ha in data set [3] (compound 35 g/ha) and in data set [4] (compound 35 g/ha) were 90% and 100%, respectively. Further, the results for the pest or weed control at 70 g/ha in [3] (compound 70 g/ha) and in data set [4] (compound 70 g/ha) were 90% and 100%, respectively.
Regarding `C=Cc1c(C(=O)OC)nc(-c2ccc3cc[nH]c3c2F)c(F)c1N` [compound 14], the “% visual injury, Ob” value is given as 0% in data set [2] (setting [11]); 0% in [2] (setting [12]); 0% in data set [2] (setting [13]); 10% in data set [2] (compound 35 g/ha, CQC-m 0 g/ha); 30% in data set [2] (compound 70 g/ha, CQC-m 0 g/ha); 0% in data set [8] (compound 4.380 g/ha). Moreover, the “% visual injury, Ob” value came out at 10% in data set [8] (compound 8.75 g/ha); 50% in [8] (compound 17.5 g/ha); 60% in [8] (compound 35 g/ha); 70% in data set [8] (compound 70 g/ha); 0% in data set [6] (setting [11]); 0% in data set [6] (setting [12]). Further, the “% visual injury, Ob” value in data set [6] (setting [13]) stood at 10%; in data set [6] (compound 35 g/ha, CQC-m 0 g/ha), 20%; in data set [6] (compound 70 g/ha, CQC-m 0 g/ha), 40%; in [9] (compound 4.380 g/ha) it was 10%; in [9] (compound 8.75 g/ha), 10%; in data set [9] (compound 17.5 g/ha), 20%. Moreover, the “% visual injury, Ob” value in data set [9] (compound 35 g/ha) was 30%; in [9] (compound 70 g/ha), 60%; in [10] (compound 4.380 g/ha), 10%; in data set [10] (compound 8.75 g/ha), 10%; in [10] (compound 17.5 g/ha), 20%.
